The source of these data is US20260125375A1 (Pfizer Inc., priority 2022, published 2026).

One experiment concerns the target T1, WT CBL-B (36-427) (Homo sapiens, UniProt Q13191).
T1 construct: N-terminal biotinylated WT CBL-B (36-427) and C-CBL (46-435) were captured on a streptavidin (SA) coated sensor chip
The experiment in a line: Surface Plasmon Resonance (SPR) assay, binding affinity and kinetics, CBL-B. The note with it: SPR at 10° C., biotinylated WT CBL-B (36-427) on streptavidin chip; geometric mean; read-out: CBL-B SPR Kd (nM) GMean. Summed up: (§1)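 SPR kinetics at 10° C, run either single-cycle (0.001–1 μM, 3-fold, 6 points, 120 s on, >5400 s off) or multi-cycle (10 points, 2-fold, top 10 or 100 μM, 90 s on). Proteins were N-biotinylated CBL-B (36-427) and C-CBL (46-435) on SA surfaces, in pH 7.2 HEPES, 2% DMSO.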

A further experiment deals with T2, C-CBL (46-435) (Homo sapiens, UniProt P22681).
T2 construct: N-terminal biotinylated WT CBL-B (36-427) and C-CBL (46-435) were captured on a streptavidin (SA) coated sensor chip
T2 sequence (P22681 46-435): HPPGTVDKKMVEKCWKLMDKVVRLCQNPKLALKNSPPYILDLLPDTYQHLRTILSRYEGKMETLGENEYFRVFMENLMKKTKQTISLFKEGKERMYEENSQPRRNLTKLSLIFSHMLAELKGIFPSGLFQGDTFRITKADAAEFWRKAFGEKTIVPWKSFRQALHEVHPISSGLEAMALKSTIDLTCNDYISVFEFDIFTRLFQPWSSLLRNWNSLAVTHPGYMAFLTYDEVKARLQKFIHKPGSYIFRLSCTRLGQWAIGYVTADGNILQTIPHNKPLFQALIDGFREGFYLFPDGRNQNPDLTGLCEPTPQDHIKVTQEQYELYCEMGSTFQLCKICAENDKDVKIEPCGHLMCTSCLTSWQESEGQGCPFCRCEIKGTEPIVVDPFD
Description: Surface Plasmon Resonance (SPR) assay, binding affinity and kinetics, C-CBL. The note with it: SPR at 10° C., biotinylated C-CBL (46-435) on streptavidin chip; geometric mean; read-out: C-CBL SPR Kd (nM) GMean. An outline of the steps: as §1

In a further experiment the target is T3, C-CBL (residues 46-435) (Homo sapiens, UniProt P22681).
T3 construct: Purified CBL-B (residues 36-427) and C-CBL (residues 46-435) proteins from baculovirus-infected insect cells; made in house; host or cells: baculovirus-infected insect cells
T3 sequence (P22681 46-435): T2 sequence (P22681 46-435)
Description: Ligand Displacement Assay (LDA), HTRF competitive binding against BODIPY-labeled fluorescent tracer, C-CBL. The note with it: geometric mean of the number of tests, read-out: C-CBL Ki (nM) GMean. Summed up:
(§2)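 Insect-cell (baculovirus) protein, N-term AviTag biotinylated via BirA, captured by SA-Tb; BODIPY tracer, KD measured per protein. 3-fold serial dilutions, duplicate, […], 2% DMSO final. Ki (nM) = geomean of runs.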
In general terms: TR-FRET usually uses a lanthanide donor and a delayed reading to cut background.

For another experiment, the target named is T4, CBL-B (residues 36-427) (Homo sapiens, UniProt Q13191).
T4 construct: Purified CBL-B (residues 36-427) and C-CBL (residues 46-435) proteins from baculovirus-infected insect cells; made in house; host or cells: baculovirus-infected insect cells
Description: Ligand Displacement Assay (LDA), HTRF competitive binding against BODIPY-labeled fluorescent tracer, CBL-B. The note with it: geometric mean of the number of tests, read-out: CBL-B Ki (nM) GMean. An outline of the steps: as §2

For orientation: Kd means the free concentration of one partner at which half of the binding sites on the other are occupied at equilibrium, for simple one-to-one binding. For orientation: Ki means the dissociation constant of the complex between target and ligand, obtained from inhibition or displacement. With `CC(CN)c1nc(C(F)(F)F)cc2c(-c3cccc([C@H](c4nncn4C)C4CCC4)c3)n[nH]c12` (single isomer, unassigned) [Example K15], the Kd at WT CBL-B (36-427) was determined as 23.9 nM; on C-CBL (46-435), 452 nM. The Ki at C-CBL (residues 46-435) was determined as 263 nM; at CBL-B (residues 36-427) it was 30.1 nM.

On to `CC(N)c1nc(C(F)(F)F)cc2c(-c3cccc(C4(Cc5nncn5C)COC4)c3)n[nH]c12` (single isomer, unassigned) [Example K16, (1ξ)-1-[3-(3-{3-[(4-methyl-4H-1,2,4-triazol-3-yl)methyl]oxetan-3-yl}phenyl)-5-(trifluoromethyl)-1H-pyrazolo[3,4-c]pyridin-7-yl]ethan-1-amine], for which the Kd on WT CBL-B (36-427) was found to be 15.7 nM; on C-CBL (46-435), 216 nM. The Ki on C-CBL (residues 46-435) stood at 140 nM; on CBL-B (residues 36-427) it was 32 nM.

Take `CC(N)c1nc(C(F)(F)F)cc2c(-c3cccc(C4(Cc5nncn5C)COC4)c3)n[nH]c12` (single isomer, unassigned) [Example K17, (1ξ)-1-[3-(3-{3-[(4-methyl-4H-1,2,4-triazol-3-yl)methyl]oxetan-3-yl}phenyl)-5-(trifluoromethyl)-1H-pyrazolo[3,4-c]pyridin-7-yl]ethan-1-amine]: the Kd at WT CBL-B (36-427) came to 27.3 nM; on C-CBL (46-435), 256 nM. The Ki on C-CBL (residues 46-435) worked out at 145 nM; on CBL-B (residues 36-427), 44.6 nM.

Consider `Cn1cnnc1[C@@H](c1cccc(-c2n[nH]c3c(C4CCCCN4)nc(C(F)(F)F)cc23)c1)C1CCC1` (single isomer, unassigned) [Example L1], for which the Kd amounted to 40.7 nM on WT CBL-B (36-427) and 697 nM at C-CBL (46-435). Further, the figures for the Ki on C-CBL (residues 46-435) and on CBL-B (residues 36-427) were 439 nM and 74.2 nM, respectively.

Regarding `Cn1cnnc1[C@@H](c1cccc(-c2n[nH]c3c(C4CCCCN4)nc(C(F)(F)F)cc23)c1)C1CCC1` (single isomer, unassigned) [Example L2], the Kd on WT CBL-B (36-427) amounted to 30 nM; on C-CBL (46-435) it was 307 nM. Also, the Ki is 721 nM at C-CBL (residues 46-435) and 90.1 nM at CBL-B (residues 36-427).

Regarding `CC(=O)NCC(C)c1nc(C(F)(F)F)cc2c(-c3cccc([C@H](c4nncn4C)C4CCC4)c3)n[nH]c12` (single isomer, unassigned) [Example M4], the Kd was found to be 10.3 nM on WT CBL-B (36-427) and 250 nM on C-CBL (46-435). For the same compound, the Ki at C-CBL (residues 46-435) came to 157 nM; on CBL-B (residues 36-427), 20.5 nM.

In the case of `CC(=O)NCC(C)c1nc(C(F)(F)F)cc2c(-c3cccc([C@H](c4nncn4C)C4CCC4)c3)n[nH]c12` (single isomer, unassigned) [Example M5], the values for the Kd on WT CBL-B (36-427) and on C-CBL (46-435) were 14.2 nM and 741 nM, respectively. The Ki worked out at 527 nM at C-CBL (residues 46-435) and 52.5 nM on CBL-B (residues 36-427).

Consider `CN1CCC(Oc2nc(C(F)(F)F)cc3c(-c4cccc(C5(Cc6nncn6C)COC5)c4)n[nH]c23)C1` (stereo in doubt) [Example J2, 7-{[(3S)-1-methylpyrrolidin-3-yl]oxy}-3-(3-{3-[(4-methyl-4H-1,2,4-triazol-3-yl)methyl]oxetan-3-yl}phenyl)-5-(trifluoromethyl)-1H-pyrazolo[3,4-c]pyridine], for which the Kd was 4.8 nM on WT CBL-B (36-427) and 37.6 nM at C-CBL (46-435). Moreover, the Ki worked out at 76.6 nM on C-CBL (residues 46-435) and 19.1 nM on CBL-B (residues 36-427).

On to `CNc1nc2[nH]nc(-c3cccc([C@H](c4nncn4C)C4CCC4)c3)c2cc1C(F)(F)F` [E2, 3-{3-[(R)-cyclobutyl(4-methyl-4H-1,2,4-triazol-3-yl)methyl]phenyl}-N-methyl-5-(trifluoromethyl)-1H-pyrazolo[3,4-b]pyridin-6-amine], for which the Kd at WT CBL-B (36-427) worked out at 53.9 nM; on C-CBL (46-435), 1730 nM. The inhibition constant Ki at C-CBL (residues 46-435) came out at 2650 nM; on CBL-B (residues 36-427), 244 nM.

In the case of `Cn1cnnc1[C@@H](c1cccc(-c2n[nH]c3cnc(Cl)cc23)c1)C1CCC1` [Example A3, 5-chloro-3-{3-[(R)-cyclobutyl(4-methyl-4H-1,2,4-triazol-3-yl)methyl]phenyl}-1H-pyrazolo[3,4-c]pyridine], the Kd was determined as 12.9 nM on WT CBL-B (36-427) and 301 nM at C-CBL (46-435). Also, the Ki on C-CBL (residues 46-435) was determined as 362 nM; at CBL-B (residues 36-427), 31.1 nM.

`Cc1cc2c(-c3cccc([C@H](c4nncn4C)C4CCC4)c3)n[nH]c2cn1` [Example A6, 3-{3-[(R)-cyclobutyl(4-methyl-4H-1,2,4-triazol-3-yl)methyl]phenyl}-5-methyl-1H-pyrazolo[3,4-c]pyridine]: the Kd was found to be 21.4 nM on WT CBL-B (36-427) and 882 nM at C-CBL (46-435). Also, the Ki on C-CBL (residues 46-435) was 525 nM; on CBL-B (residues 36-427), 51.5 nM.

Regarding `Cc1nccc2c(-c3cccc([C@H](c4nncn4C)C4CCC4)c3)n[nH]c12` [Example A7, 3-{3-[(R)-cyclobutyl(4-methyl-4H-1,2,4-triazol-3-yl)methyl]phenyl}-7-methyl-1H-pyrazolo[3,4-c]pyridine], the Kd on WT CBL-B (36-427) came to 31 nM; on C-CBL (46-435), 1300 nM. Besides, the Ki stood at 767 nM on C-CBL (residues 46-435) and 83.8 nM at CBL-B (residues 36-427).

With `Cn1cnnc1CC1(c2cccc(-c3n[nH]c4cnc(C5CC5)cc34)c2)COC1` [Example B4, 5-cyclopropyl-3-(3-{3-[(4-methyl-4H-1,2,4-triazol-3-yl)methyl]oxetan-3-yl}phenyl)-1H-pyrazolo[3,4-c]pyridine], the Kd came out at 58.7 nM at WT CBL-B (36-427) and 578 nM on C-CBL (46-435). The figures for the Ki at C-CBL (residues 46-435) and at CBL-B (residues 36-427) were 254 nM and 73.9 nM, respectively.

For `Cn1cnnc1CC1(c2cccc(-c3n[nH]c4ccc(Cl)cc34)c2)COC1` [Example B7, 5-chloro-3-(3-{3-[(4-methyl-4H-1,2,4-triazol-3-yl)methyl]oxetan-3-yl}phenyl)-1H-indazole], the Kd at WT CBL-B (36-427) was determined as 7.2 nM; at C-CBL (46-435), 108 nM. In addition, the results for the Ki at C-CBL (residues 46-435) and at CBL-B (residues 36-427) were 150 nM and 25.1 nM, respectively.

Regarding `Cn1cnnc1CC1(c2cccc(-c3n[nH]c4cnc(Cl)cc34)c2)COC1` [Example B8, 5-chloro-3-(3-{3-[(4-methyl-4H-1,2,4-triazol-3-yl)methyl]oxetan-3-yl}phenyl)-1H-pyrazolo[3,4-c]pyridine], the Kd at WT CBL-B (36-427) is 15.9 nM; at C-CBL (46-435), 180 nM. Also, the Ki on C-CBL (residues 46-435) worked out at 142 nM; at CBL-B (residues 36-427), 28.6 nM.

In the case of `Cn1cnnc1CC1(c2cccc(-c3n[nH]c4cnc(OC(F)(F)F)cc34)c2)COC1` [Example B9, 3-(3-{3-[(4-methyl-4H-1,2,4-triazol-3-yl)methyl]oxetan-3-yl}phenyl)-5-(trifluoromethoxy)-1H-pyrazolo[3,4-c]pyridine], the Kd is 32.5 nM at WT CBL-B (36-427) and 244 nM on C-CBL (46-435). Further, the Ki was 238 nM at C-CBL (residues 46-435) and 74.5 nM at CBL-B (residues 36-427).

In the case of `Cn1cnnc1CC1(c2cccc(-c3n[nH]c4cnc(OC(F)F)cc34)c2)COC1` [Example B10, 5-(difluoromethoxy)-3-(3-{3-[(4-methyl-4H-1,2,4-triazol-3-yl)methyl]oxetan-3-yl}phenyl)-1H-pyrazolo[3,4-c]pyridine], the Kd at WT CBL-B (36-427) stood at 22.2 nM; at C-CBL (46-435) it was 141 nM. Also, the Ki on C-CBL (residues 46-435) was determined as 187 nM; on CBL-B (residues 36-427), 57.8 nM.

Regarding `Cn1cnnc1CC1(c2cccc(-c3n[nH]c4c(CN[C@H]5CCOC5)nc(C(F)(F)F)cc34)c2)COC1` [Example C50], the Kd at WT CBL-B (36-427) stood at 14.5 nM; on C-CBL (46-435) it was 145 nM. Also, the figures for the Ki on C-CBL (residues 46-435) and on CBL-B (residues 36-427) were 90 nM and 24.7 nM, respectively.

For `CN(C)Cc1nc(C(F)(F)F)cc2c(-c3cccc(C4(Cc5nncn5C)COC4)c3)n[nH]c12` [Example C51, N,N-dimethyl-1-[3-(3-{3-[(4-methyl-4H-1,2,4-triazol-3-yl)methyl]oxetan-3-yl}phenyl)-5-(trifluoromethyl)-1H-pyrazolo[3,4-c]pyridin-7-yl]methanamine], the values for the Kd on WT CBL-B (36-427) and on C-CBL (46-435) were 17.8 nM and 182 nM, respectively. Moreover, the Ki came out at 115 nM on C-CBL (residues 46-435) and 22 nM on CBL-B (residues 36-427).

Consider `CNCc1nc(C(F)(F)F)cc2c(-c3cccc(C4(Cc5nncn5C)COC4)c3)n[nH]c12` [Example C52, N-methyl-1-[3-(3-{3-[(4-methyl-4H-1,2,4-triazol-3-yl)methyl]oxetan-3-yl}phenyl)-5-(trifluoromethyl)-1H-pyrazolo[3,4-c]pyridin-7-yl]methanamine], for which the dissociation constant (Kd) at WT CBL-B (36-427) turned out to be 9.3 nM; on C-CBL (46-435), 124 nM. Moreover, the Ki on C-CBL (residues 46-435) was determined as 134 nM; on CBL-B (residues 36-427), 32.9 nM.
